Experimental data published in US20050272605A1, “Method to treat seeds” (priority 2002, published 2005).

What was measured:
[1] = tested on: Brachiaria dictyoneura seeds; assay: Germination test of Brachiaria dictyoneura seeds after scarification and aerated nitrate treatment (Example 1); assay type: in vivo; conditions: for % Germination 7 days (paper + water): paper substrate irrigated with water, after 7 months storage
Procedure: The tank is filled with an approximately 0.2% solution of potassium nitrate 16 in water, to level which will ensure that the seed-containing bags are just immersed. The seeds 15 are immersed at ambient temperature for about 10 to about 36 hours, during which time the tank is constantly aerated by a flow of air form the compressed air source through the perforated pipe 12. The bags are then removed form the tank 10 and allowed to drain for about 12 hours. If the seed being treated requires addition of further agents such as gibberellic acid or smoke extract, then suitable quantities of these ingredients in solution are poured over the draining seed, and mixed by hand. The seeds are then dried to between 8% and 14% moisture content, preferably 12% moisture content, and stored as required.
A lot of Brachiaria dictyoneura seeds were harvested manually (by cutting the panicle and sweating for six days in heaps, and then threshing) in Zapote, Pérez Zeledón, Costa Rica, in July 2000. The seeds were dried in the shade, classified to remove waste and stored at 15° C. and 60% relative humidity for six months. A 30 kg sample of this seed lot was then scarified for 30 minutes with concentrated sulphuric acid on Jan. 4, 2001. The seeds were dried to 12% moisture and then re-scarified for a further 15 minutes on Feb. 26, 2001. After the second scarification the seeds were soaked in potassium nitrate for 24 hours and drained for 12 hours by the process described above.
Small 50 g sub-samples of the same seed lot were also taken, some of which were scarified once or twice but not treated, and some of which only received the first 30-minute scarification, but were treated. The seeds were then dried carefully in the sun until they reached the 12% moisture content. A sample of the nitrate treated, double scarified seed was tested for germination on Mar. 8, 2001, using 3 replicates of […] pure seeds on a soil-based substrate, at approximately 35° C. during the day, and 15° C. during the night, with florescent and incandescent lighting during the day (12 hours), in closed plastic germination trays. The result was 79% germination after 26 days. The four samples were then stored for a further 7 months when the following germination test was carried out on Nov. 17, 2001, using 4 replicates of 100 seeds on a paper substrate irrigated with water, and the same growth conditions described above.

[2] = tested on: Brachiaria dictyoneura seeds; assay: Germination test of Brachiaria dictyoneura seeds after scarification, nitrate soaking and GA (Example 2); assay type: in vivo
From the text: The seeds (two replicates of 100 seeds) were sown on a soil substrate with the same growth conditions described above.

[3] = tested on: Brachiaria brizantha seeds; assay: Germination test of acid-scarified Brachiaria brizantha seeds on soil or paper substrate (Example 3); assay type: in vivo
Procedure: Effect of nitrate on a lot of acid-scarified Brachiaria brizantha imported from Brazil in July 2001, shortly after harvesting from the soil surface, using different substrates for the germination test.
The seeds were treated on Aug. 15, 2001 and after drying, samples were taken and tested for germination on Aug. 24, 2001. The soil substrate was maintained at the same moisture level throughout the test by weight. The paper substrate was maintained moist by irrigation from below, using a piece of plastic foam to separate the paper from the water in the base of the tray.

[4] = tested on: Paspalum notatum seeds; assay: Germination of Paspalum notatum seeds, lot of 1997 (Example 4); assay type: in vivo, Paspalum notatum (cv. Pensacola)
[5] = tested on: Paspalum notatum seeds; assay: Germination of Paspalum notatum seeds, lot of 2001 (Example 5); assay type: in vivo, Paspalum notatum cv Pensacola; conditions: one scarification and aerated nitrate treatment
[6] = tested on: Panicum maximum seeds; assay: Germination of Panicum maximum seeds (Example 6); assay type: in vivo, Panicum maximum cv. Tanzania; conditions: scarified seeds

O=[N+]([O-])[O-].[K+] [Nitrate, potassium nitrate]
% Germination 7 days (paper + water) ([1]; Scarified once, listed as Aerated nitrate treatment): 87.25c % | % Germination 7 days (paper + water) ([1]; Scarified once, listed as aerated nitrate treatment): 87% | % Germination 7 days (paper + water) ([1]; Scarified twice, listed as Aerated nitrate treatment): 93.00c % | % Germination 7 days (paper + water) ([1]; Scarified twice, listed as aerated nitrate treatment): 93% | germination after 26 days ([1]; double scarified seed, soil-based substrate, tested Mar. 8, 2001): 79% | seedling vigor ([1]; seedlings from treated seeds versus untreated): greater vigor | increase in germination due to nitrate treatment ([1]; seeds scarified once): 30% | increase in germination due to nitrate treatment ([1]; seeds scarified twice): 20% | % Germination 15 days (soil substrate) ([2]; Scarification once (20 minutes)): 42.5b % | % Germination 15 days (soil substrate) ([2]; Scarification twice (20 + 10 minutes)): 65.0c % | % Germination 7 days ([3]; Paper substrate): 77cd % | % Germination 25 days ([3]; Paper substrate): 82cde % | % Germination 7 days ([3]; Soil substrate): 88de % | % Germination 25 days ([3]; Soil substrate): 90e % | % Germination ([4]; Scarification 10 minutes): 64.8% | % Germination ([4]; Scarification 20 minutes): 63.5% | % Germination [5]: 79.0% | % Germination [6]: 50.0%
